The values below come from ChEMBL document CHEMBL4602659, “β,β-Dimethylacrylshikonin Induces Apoptosis in Melanoma Cell Lines by NOXA Upregulation” (J Nat Prod, 2020).

The source made the active and inactive calls. The calls are words filed in the database; no cut-off is given here.

As usually defined, the IC50 is the concentration that gives 50% inhibition.

The test system of test [1] is MUGMel2. Nature of the test: Induction of apoptosis in human MUGMel2 cells assessed as effect on PUMA protein expression at IC50 concentration after 24 hrs by Western blot analysis. The test is classed as functional, cell-based.
Test [2] concerns WM164. The test is described as follows: Induction of apoptosis in human WM164 cells assessed as early apoptotic cells at IC50 concentration after 24 hrs by Annexin V/SYTOX Green based flow cytometric analysis (reference value: 2.72%). It is filed as functional.
The test system of test [3] is MUGMel1. The test is described as follows: Induction of apoptosis in human MUGMel1 cells assessed as up regulation of NOXA at IC50 concentration after 6 to 24 hrs by RT-qPCR analysis relative to control. The test is classed as functional. Background: Real-time PCR tracks product formation cycle by cycle.
For test [4], the system named is MUGMel2. The test is described as follows: Induction of apoptosis in human MUGMel2 cells assessed as late apoptotic cells at IC50 concentration after 6 hrs by Annexin V/SYTOX Green based flow cytometric analysis (reference value: 5.69%). The test is classed as functional. Background: In flow cytometry, cells or beads pass a laser one at a time.
In test [5] the test system is SBcl2. Nature of the test: Induction of apoptosis in human SBcl2 cells assessed as necrotic cells at IC50 concentration after 24 hrs by Annexin V/SYTOX Green based flow cytometric analysis (reference value: 0.21%). It is filed as functional.
The subject of test [6] is MUGMel1. Nature of the test: Induction of apoptosis in human MUGMel1 cells assessed as late apoptotic cells at IC50 concentration after 6 hrs by Annexin V/SYTOX Green based flow cytometric analysis (reference value: 1.04%). The test is classed as functional.
The test system of a further test is B16-F0. The test is described as follows: Cytotoxicity against mouse B16F0 cells assessed as reduction in cell viability after 24 hrs by MTT assay. To be noted: B16F0, 24 h. The test is classed as functional, cell-based. A general note: Tetrazolium assays rely on reduction of a dye to a coloured formazan, in cell work by metabolically active cells.
Test [7] deals with WM164. Nature of the test: Induction of apoptosis in human WM164 cells assessed as up regulation of NOXA at IC50 concentration after 6 to 24 hrs by RT-qPCR analysis. The test is classed as functional, cell-based.
Test [8] has as its system MUGMel2. Nature of the test: Cytotoxicity against human MUGMel2 cells harboring NRAS pQ61K mutant assessed as reduction in cell viability after 72 hrs by EZ4U reagent based spectrophotometric method. The test is classed as functional. The following applies: MUGMel2, 72 h.
Test [9] concerns MUGMel1. Nature of the test: Induction of apoptosis in human MUGMel1 cells assessed as effect on BAD protein expression at IC50 concentration after 24 hrs by Western blot analysis. It is filed as functional, cell-based.
The subject of test [10] is SBcl2. The test is described as follows: Antitumour activity against human SBcl2 cells xenografted in NU(NCr)-Foxn1 mouse assessed as increase in necrotic cells at 2 ug/g administered for three consecutive days with 1 day interval for four cycle by hematoxylin and eosin staining based microscopic analysis. The test is classed as functional.
For test [11], the system named is MUGMel2. The test is described as follows: Induction of apoptosis in human MUGMel2 cells assessed as effect on BAD protein expression at IC50 concentration after 24 hrs by Western blot analysis. The test is classed as functional, cell-based.
Test [12] concerns WM164. The test is described as follows: Cytotoxicity against human WM164 cells harboring BRAF V600E mutant assessed as reduction in cell viability after 72 hrs by EZ4U reagent based spectrophotometric method. The test is classed as functional. To be noted: WM164, 72 h.
Test [13] has as its system WM164. Nature of the test: Induction of apoptosis in human WM164 cells assessed as effect on BAX protein expression at IC50 concentration after 24 hrs by Western blot analysis. The test is classed as functional, cell-based.
Test [14] relates to SBcl2. Nature of the test: Induction of apoptosis in human SBcl2 cells assessed as up regulation of BCL2 at IC50 concentration after 6 to 24 hrs by RT-qPCR analysis. It is filed as functional, cell-based.
Test [15] relates to SBcl2. Nature of the test: Induction of apoptosis in human SBcl2 cells assessed as viable cells at IC50 concentration after 6 hrs by Annexin V/SYTOX Green based flow cytometric analysis (reference value: 80.68%). The test is classed as functional.
Test [16] relates to MUGMel1. The test is described as follows: Cytotoxicity against human MUGMel1 cells assessed as reduction in cell viability after 24 hrs by EZ4U reagent based spectrophotometric method. It is filed as functional. To be noted: MUGMel1, 24 h.

For `CC(C)=CC[C@@H](OC(=O)C=C(C)C)C1=CC(=O)c2c(O)ccc(O)c2C1=O` [DIMETHYLACRYLSHIKONIN], the outcome in the test with MUGMel2 [1], with MUGMel1 [9], with MUGMel2 [11] and in the test with WM164 [13] was inactive. The Activity was determined as 12.85% in the test on WM164 [2]; 13.53% in the test on MUGMel2 [4]; 0% in the test on SBcl2 [5]; 2.36% in the test with MUGMel1 [6]; 50% with SBcl2 [10]; 21.29% with SBcl2 [15]. Moreover, the “fold change (FC)” value in the test on MUGMel1 [3] is recorded as 2.4. For the same compound, the IC50 was 1200 to 5100 nM in the test on B16-F0, 1700 nM with MUGMel2 [8], 2400 nM in the test with WM164 [12] and 1900 nM with MUGMel1 [16]. In addition, the outcome with WM164 [7] and in the test with SBcl2 [14] was Active.
